# Patent publication US20100200049A1, “BIOHYBRID SYSTEM FOR HYDROGEN PRODUCTION” (Alliance for Sustainable Energy, LLC, priority 2008, published 2010)
# Columns and labels:
# PS II [1] = target: T1, PS II (Thermosynechococcus vestitus, UniProt P0A444); test: Photocurrent of GC-PS II electrode wired to hydrogenase electrode, with DCMU added; assay type: biochemical, Thermosynechococcus elongatus; conditions: 5 μM and 10 μM DCMU in working solution; red light 660 nm, 10 s light/40 s dark; all oxidizing potentials tested (+0.2 to +1.0 V)
# T1 construct: PS II complexes were isolated from Thermosynechococcus elongatus; from tissue; host or cells: Thermosynechococcus elongatus cells (photosynthetic membranes); method of Schatz and Witt 1984 with modifications
# Description: (§1) PS II complexes were isolated from Thermosynechococcus elongatus according to methods described by Schatz and Witt (1984, Extraction and characterisation of oxygen-evolving Photosystem II complexes from a thermophilic cyanobacterium Synechococcus sp. Photobiochem. Photobiophys. 7: 1-14) with modifications.
# (§2) The PS II electrode was prepared by depositing 5 μl of 1 mM isolated PS II complex preparation onto the electrode in almost complete darkness, with a weak non-actinic green light present, and dried overnight at +4° C. in darkness. A pyrolytic graphite edge (PGE) electrode with a diameter of 4.8 mm or a glassy carbon (GC) electrode with a diameter of 3 mm was used. Directly before the experiment, the surface of the electrode containing dried PS II sample was covered with a dialysis membrane (12000-14000 MW cutoff) that was held in place by o-ring.
# The photocurrent was generated by illumination of the PS II electrode by red LED (660 nm) or white LED. The following light/dark cycle was used: 10 s light, 40 s dark, unless specified otherwise.
# The experiments in which the PS II electrode was tested by addition of DCMU were performed using the GC-PS II electrode, wired to a 4.8 mm diameter PGE-hydrogenase electrode. […]
# PS II [2] = target: T1, PS II; test: Photocurrent of PGE-PS II electrode with soluble electron mediator; assay type: biochemical, Thermosynechococcus elongatus; conditions: DMBQ 60 μM vs no mediator; +0.4 V vs Ag/AgCl; red light 660 nm, 10 s light/40 s dark
# Description: as §1, §2
# A 50 mM stock solution of DMBQ in ethanol was prepared fresh before the experiment and used as an electron mediator for PS II in various concentrations. […]
SMILES,effect on generation of photocurrent by the PS II electrode (PS II [1]),effect on amplitude of photocurrent generated by the PS II electrode (PS II [2])
CN(C)C(=O)Nc1ccc(Cl)c(Cl)c1 [DCMU],inhibited the generation of photocurrent,
"CC1=CC(=O)C=C(C)C1=O [DMBQ, 2,6-dimethyl 1,4-benzoquinone]",,dramatically improved the amplitude of photocurrent
